Here are results for one molecule from patent US20200290950A1, “ALKAMIDE COMPOUNDS AND USES THEREOF” (NORTH CAROLINA STATE UNIVERSITY, priority 2017, published 2020).

In test [1] the test system is RBL-2H3 cells. The test can be described thus: Calcium assay, Fluo-4 (Example 3). It is filed as cell-based, rat. On the procedure:
FIGS. 22A-22D. The alkamide fatty acid is necessary for inhibition of calcium influx. RBL-2H3 cells were plated overnight, incubated with Fluo-4 AM for 1 h, stimulated by 1 μM A23187 (FIG. 22A) or 5 ng/mL DNP-BSA (FIG. 22B) in the absence or presence of each alkamide, and fluorescence was read for 2 mins every 5 secs. Data are presented as the mean change in RFU of 4 experiments. Percent inhibition of calcium influx was calculated for A23187 (FIG. 22C) and DNP-BSA (FIG. 22D) stimulated cells at 2 mins. *P<0.05, **P<0.01, and ***P<0.001 one-way ANOVA with Dunnett's post hoc test compared to A15.
RBL-2H3 cells (1.0×10^5 cells) were incubated overnight in a 96 well black-wall clear bottom plate with or without IgE-DNP (0.1 μg/mL) at 37° C. with 5% CO2. The assay was performed using the Fluo-4 Direct™ Calcium Assay Kit according to the manufacturer's instruction. Briefly, cells were incubated with the Fluo-4 Direct calcium reagent loading solution for 30 minutes at 37° C. with 5% CO2 then 30 mins at room temperature. Prior to stimulation, the well baseline fluorescence was measured every 5 seconds over 1 minute using a BioTek Synergy HT microplate reader with 485/20 nm excitation and 528/20 nm emission filters. Cells were stimulated with 1 μM A23187 or 5 ng/mL DNP (IgE-DNP) in the absence or presence of each compound, and the fluorescence was measured every 5 seconds over 2 minutes. The change in fluorescence (ΔRT) was calculated as the sample fluorescence minus the baseline fluorescence for each well.

In test [2] the target is cannabinoid type 2 receptor (CB2) (Homo sapiens, UniProt P34972). To be noted: Raduner et al., 2006; cited from earlier work.
Test [3] concerns BMMCs. The test can be described thus: Toluidine blue staining of granules in BMMCs. It is filed as cell-based, mouse. On the procedure:
FIG. 2. A15 inhibits granule release from BMMCs. […] BMMCs were cytocentrifuged onto a glass slide, fixed, stained with toluidine blue (1%, pH<1) for 30 min, and washed before observing microscopically. Images were acquired at 400× magnification and are representative.

The test system of test [4] is β-hexosaminidase. The test can be described thus: β-hexosaminidase enzyme activity in RBL-2H3 cell lysates with p-NAG. It is filed as biochemical, rat. To be noted: 1 hr at 37° C. On the procedure:
FIG. 8. […] RBL-2H3 cells were lysed with 0.1% Triton X-100 to release β-hex from the cells. Lysates were incubated for 1 hr at 37° C. with the substrate, p-NAG, in combination with the indicated concentrations of A15 or vehicle only. The absorbance at 405 nm was measured using a microplate spectrophotometer. Results shown are the means±SEM of triplicate wells from a representative experiment out of 2 independent experiments. Statistical analysis was performed using a one-way ANOVA with Dunnett's post-hoc test.

Test [5] concerns RBL-2H3 cells. The test is described as follows: β-Hexosaminidase release assay (Example 3). It is filed as cell-based, rat. As to the method:
FIGS. 21A-21D. The inhibition of degranulation is dependent on the length of the alkamide fatty acid chain. RBL-2H3 cells were plated overnight, stimulated with 1 μM A23187 (FIG. 21A) or 5 ng/mL DNP-BSA (FIG. 21B) for 1 h in the absence or presence of each compound. Graphs display the mean percent β-hex release. Data are presented as the mean of 4 experiments. Percent inhibition of degranulation of A23187 (FIG. 21C) or DNP-BSA (FIG. 21D) using data from A and B, respectively. *P<0.05, **P<0.01, ***P<0.001, one-way ANOVA with Dunnett's post hoc test compared to vehicle (A, B) or A15 (C, D).
RBL-2H3 cells (1.0×10^5 cells) were incubated with or without 0.1 μg/mL of IgE-DNP overnight in a 96 well plate at 37° C. with 5% CO2. The cells were washed with Tyrode's buffer and assayed with few modifications (Kuehn, Radinger, & Gilfillan, 2010). Briefly, IgE-DNP sensitized cells were stimulated 1 hour with 5 ng/mL of DNP-BSA in the absence or presence of each compound and incubated at 37° C. with 5% CO2. For experiments using only A23187 as the stimulant, cells were washed with Tyrode's buffer and stimulated 1 hour with 1 μM A23187 in the absence or presence of each compound and incubated at 37° C. with 5% CO2. The stimulated cells were centrifuged at 1200×g for 5 minutes. The supernatant or cell lysate (30 μL) was incubated with 3.4 mg/mL of p-NAG (10 μL) for 1 hour at 37° C. The reaction was terminated by addition of 0.2 M sodium carbonate (pH 10) and the absorbance was read at OD405 nm on a BioTek Synergy HT microplate reader. The total 3-hexosaminidase released from the cell was calculated as the difference between the OD of the supernatant and blank plus the difference between the OD of the lysate and blank. The percent β-hexosaminidase released from the cell was calculated as the difference between the OD of the supernatant and blank divided by the total β-hexosaminidase released from the cell multiplied by 100: ODsupernatant−ODblank/[(ODlysate−ODblank)+(ODsupernatant−ODblank)]*100.

Sequence of cannabinoid type 2 receptor (CB2) (P34972 whole entry, species assumed): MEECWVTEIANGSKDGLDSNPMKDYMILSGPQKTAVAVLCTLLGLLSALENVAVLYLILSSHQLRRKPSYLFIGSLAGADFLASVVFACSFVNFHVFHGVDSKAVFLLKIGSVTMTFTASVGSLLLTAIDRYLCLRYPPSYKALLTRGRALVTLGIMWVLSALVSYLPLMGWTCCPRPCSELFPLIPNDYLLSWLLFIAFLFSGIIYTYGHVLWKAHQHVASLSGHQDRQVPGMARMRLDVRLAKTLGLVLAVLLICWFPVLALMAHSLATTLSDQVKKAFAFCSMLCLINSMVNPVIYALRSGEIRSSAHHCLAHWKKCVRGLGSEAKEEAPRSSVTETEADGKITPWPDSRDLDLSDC

For `CCCCCCC/C=C/C=C/C(=O)NCC(C)C` [A15, (2E,4E)-N-Isobutyldodeca-2,4-dienamide], the “percent inhibition of calcium influx” value in test [1] (5 ng/mL DNP-BSA, at 2 minutes) turned out to be 66%; in test [1] (1 μM A23187, at 2 minutes) it was 76%. For the same molecule, in test [2], the “binding to CB2” value is “shown to bind”. The “toluidine blue staining, compound alone” value in test [3] (100 μM A15 alone, 30 min) is on record as “did not noticeably affect staining”. In addition, the “A23187-induced reduction of toluidine blue staining (granule release)” value in test [3] (100 μM A15 with 1 μM A23187, 30 min) was “blocked”. The “enzymatic activity of β-hex (production of chromogenic product from p-NAG)” value in test [4] is on record as “not inhibited”. The “percent inhibition of degranulation” value worked out at 27% in test [5] (5 ng/mL DNP-BSA, 1 hour) and 47% in test [5] (1 μM A23187, 1 hour).
